Experiment [1] has as its system OKP-GS cells. The experiment in a line: Annexin-V/propidium iodide apoptosis assay by flow cytometry. The experiment is classed as cell-based, human. The note with it: for Living cells: Figure 3; for Level of apoptosis compared with sorafnib / Number of necrotic cells: 72 h; for Number of necrotic cells: 5, 10 and 20 μM. The method, then:
Apoptosis is a versatile and extremely effective pathway for cell death. This phenomenon can be caused by internal signals, such as genotoxic stress, or external signals, such as the binding of ligands to death receptors on the cell surface. The induction of apoptosis was studied by measuring the translocation of phosphatidylserine from the cytoplasmic to the extracellular side of the plasma membrane. OKP-GS cells were treated with compound 7 or 10 at 5, 10 and 20 μM for 72 h, after which annexin-V/propidium iodide (PI) binding was measured by flow cytometry (Figure 2).
Tumor cells were plated on a 6-well plate at a density of 100.000 per well for OKP-GS. Test compounds 7 and 10 were added at concentrations of 5, 10, and 20 μM for 72 h. Then, the cells were washed from the culture medium by centrifugation at 1000 rpm for 5 min, washed again with phosphate buffer, then the Annexin V-FITC and PI dyes from the Annexin 5A-FITC Kit (Beckman Coulter, Brea, CA, USA) were added, according to the manufacturer’s instructions. Colored suspensions were incubated for 15 min in the dark on ice and measured on a Cytomics FC500 Beckman Coulter flow cytometer (channels FL1 for Annexin V-FITC and FL4 for PI). Data were analyzed with Kaluza 2.0 Software (Beckman Coulter, Brea, CA, USA).

A further experiment has as its target T1, Bcr–Abl1 kinase (Homo sapiens, UniProt P00519).
T1 construct: purchased Promega
The experiment in a line: Abl1 Kinase Enzyme System / ADP-Glo kinase assay. The note with it: ATP 50 μM; for inhibition at 0.5 µM: 0.5 µM compound; for inhibition at 10 µM: 10 µM compound. The experiment is classed as biochemical. On the procedure: (§1) At the end, 10 μL of kinase detection reagent was added into the well and incubated for 30 min to produce a luminescence signal.

For a further experiment, the target named is T2, PDGFRβ (Homo sapiens, UniProt P09619).
T2 construct: purchased Promega
The experiment in a line: Kinase Selectivity Profiling System TK-1 / ADP-Glo, PDGFRβ. In kind it is biochemical. The method, then:
as §1

Experiment [2] deals with OKP-GS cells. The experiment in a line: Cell cycle distribution, propidium iodide staining, flow cytometry. The conditions noted are these: 72 h. In kind it is cell-based, human. The method, then:
To assess changes in the distribution of cells by phases of the cell cycle, we used the method of staining fixed samples with propidium iodide (Calbiochem, USA). Pre-fixation of cells was carried out with 70% ethanol for […]. To exclude the binding of propidium iodide to RNA, the fixed samples were treated with RNAse A at a final concentration of 50 μg/mL (R4875, Sigma, St. Louis, MI, USA) for 15 min at 37 °C [34, 35].
Tumor cells were seeded on a 6-well plate at a density of 200.000 per well for HL-60 and 100.000 per well for OKP-GS. Test compounds 7 and 10 were added at concentrations of 5, 10, and 20 μM for 72 h. Then, the cells were washed from the culture medium by centrifugation at 1000 rpm for 5 min, washed again with PBS, then fixed with ice-cold ethanol during constant shaking and incubated at −20 °C for 24 h. After that, we washed it from alcohol by centrifugation, washed it again with PBS and added a solution containing 100 μg/mL RNase A and 10 μg/mL propidium iodide (PI), incubated for 40 min in the dark and measure it on a Cytomics FC500 Beckman Coulter flow cytometer (FL4 channel for PI). Received data were analyzed with the help of Kaluza 2.0 Software (Beckman Coulter, Brea, CA, USA).

A further experiment addresses T3, HER2 (Homo sapiens, UniProt P04626).
T3 construct: purchased Promega
The experiment in a line: Kinase Selectivity Profiling System TK-1 / ADP-Glo, HER2. In kind it is biochemical. On the procedure: as §1

“And” between values parts separate entries of the source, which are not always exact repeats. Identical values can stand only once.

T1 sequence (P00519 whole entry): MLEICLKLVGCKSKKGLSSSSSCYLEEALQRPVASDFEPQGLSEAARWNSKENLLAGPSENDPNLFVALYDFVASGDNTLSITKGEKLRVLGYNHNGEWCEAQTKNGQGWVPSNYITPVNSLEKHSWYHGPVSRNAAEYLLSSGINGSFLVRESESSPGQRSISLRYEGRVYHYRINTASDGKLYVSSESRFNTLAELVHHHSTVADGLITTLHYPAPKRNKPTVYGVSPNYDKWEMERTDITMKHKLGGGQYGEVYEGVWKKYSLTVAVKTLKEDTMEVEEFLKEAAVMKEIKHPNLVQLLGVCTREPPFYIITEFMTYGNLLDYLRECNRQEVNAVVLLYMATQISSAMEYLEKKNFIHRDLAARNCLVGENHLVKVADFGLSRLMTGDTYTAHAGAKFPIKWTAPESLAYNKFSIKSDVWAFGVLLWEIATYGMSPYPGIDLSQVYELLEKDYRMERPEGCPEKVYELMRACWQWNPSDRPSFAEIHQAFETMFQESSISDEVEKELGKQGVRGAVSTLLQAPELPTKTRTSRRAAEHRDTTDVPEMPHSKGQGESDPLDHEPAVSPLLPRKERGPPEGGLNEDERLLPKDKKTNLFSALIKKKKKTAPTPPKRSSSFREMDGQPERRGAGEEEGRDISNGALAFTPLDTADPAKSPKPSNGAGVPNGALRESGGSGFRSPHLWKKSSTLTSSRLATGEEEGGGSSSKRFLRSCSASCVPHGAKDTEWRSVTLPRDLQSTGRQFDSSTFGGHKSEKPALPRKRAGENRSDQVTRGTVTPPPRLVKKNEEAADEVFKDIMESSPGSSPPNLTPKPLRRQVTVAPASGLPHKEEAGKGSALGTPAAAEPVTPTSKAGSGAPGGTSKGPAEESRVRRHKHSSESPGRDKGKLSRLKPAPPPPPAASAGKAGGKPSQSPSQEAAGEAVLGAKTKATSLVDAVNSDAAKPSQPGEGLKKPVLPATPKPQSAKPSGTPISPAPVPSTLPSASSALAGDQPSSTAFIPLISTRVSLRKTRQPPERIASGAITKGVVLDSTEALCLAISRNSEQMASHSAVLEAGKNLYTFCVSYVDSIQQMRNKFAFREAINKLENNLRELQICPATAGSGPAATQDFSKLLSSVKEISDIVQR
T3 sequence (P04626 23-1255): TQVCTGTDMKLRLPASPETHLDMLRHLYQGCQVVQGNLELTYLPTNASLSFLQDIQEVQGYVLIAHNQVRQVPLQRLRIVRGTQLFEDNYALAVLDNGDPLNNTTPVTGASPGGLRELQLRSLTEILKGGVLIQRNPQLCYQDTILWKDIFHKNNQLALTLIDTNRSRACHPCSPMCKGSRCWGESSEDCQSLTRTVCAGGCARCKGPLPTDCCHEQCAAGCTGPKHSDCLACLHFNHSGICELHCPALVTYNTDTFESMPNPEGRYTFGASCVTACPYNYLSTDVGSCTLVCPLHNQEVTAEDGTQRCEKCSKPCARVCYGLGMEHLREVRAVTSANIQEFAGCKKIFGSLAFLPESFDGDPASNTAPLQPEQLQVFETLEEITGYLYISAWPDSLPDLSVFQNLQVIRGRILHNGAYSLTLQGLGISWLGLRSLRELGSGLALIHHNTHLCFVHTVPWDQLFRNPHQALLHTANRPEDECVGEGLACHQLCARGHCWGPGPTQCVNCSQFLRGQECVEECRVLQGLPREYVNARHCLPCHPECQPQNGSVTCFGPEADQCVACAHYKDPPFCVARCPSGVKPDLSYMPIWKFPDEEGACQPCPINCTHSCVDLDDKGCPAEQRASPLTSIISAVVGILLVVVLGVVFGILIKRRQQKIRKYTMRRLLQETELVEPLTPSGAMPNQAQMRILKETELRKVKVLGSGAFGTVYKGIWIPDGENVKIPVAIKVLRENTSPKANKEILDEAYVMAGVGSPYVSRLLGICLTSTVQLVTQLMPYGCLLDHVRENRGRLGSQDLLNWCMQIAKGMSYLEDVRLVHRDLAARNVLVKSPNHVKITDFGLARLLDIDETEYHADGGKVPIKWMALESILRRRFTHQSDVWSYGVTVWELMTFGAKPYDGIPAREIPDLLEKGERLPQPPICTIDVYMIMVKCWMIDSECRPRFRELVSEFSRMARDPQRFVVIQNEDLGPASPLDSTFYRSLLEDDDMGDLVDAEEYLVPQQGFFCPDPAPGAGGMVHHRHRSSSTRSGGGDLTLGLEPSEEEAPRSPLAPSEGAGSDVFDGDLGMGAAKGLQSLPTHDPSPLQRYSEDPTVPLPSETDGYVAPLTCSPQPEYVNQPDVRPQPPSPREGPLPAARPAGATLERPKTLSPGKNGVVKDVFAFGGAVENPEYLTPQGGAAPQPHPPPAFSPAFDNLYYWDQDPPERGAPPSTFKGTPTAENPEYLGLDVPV
T2 sequence (P09619 33-1106): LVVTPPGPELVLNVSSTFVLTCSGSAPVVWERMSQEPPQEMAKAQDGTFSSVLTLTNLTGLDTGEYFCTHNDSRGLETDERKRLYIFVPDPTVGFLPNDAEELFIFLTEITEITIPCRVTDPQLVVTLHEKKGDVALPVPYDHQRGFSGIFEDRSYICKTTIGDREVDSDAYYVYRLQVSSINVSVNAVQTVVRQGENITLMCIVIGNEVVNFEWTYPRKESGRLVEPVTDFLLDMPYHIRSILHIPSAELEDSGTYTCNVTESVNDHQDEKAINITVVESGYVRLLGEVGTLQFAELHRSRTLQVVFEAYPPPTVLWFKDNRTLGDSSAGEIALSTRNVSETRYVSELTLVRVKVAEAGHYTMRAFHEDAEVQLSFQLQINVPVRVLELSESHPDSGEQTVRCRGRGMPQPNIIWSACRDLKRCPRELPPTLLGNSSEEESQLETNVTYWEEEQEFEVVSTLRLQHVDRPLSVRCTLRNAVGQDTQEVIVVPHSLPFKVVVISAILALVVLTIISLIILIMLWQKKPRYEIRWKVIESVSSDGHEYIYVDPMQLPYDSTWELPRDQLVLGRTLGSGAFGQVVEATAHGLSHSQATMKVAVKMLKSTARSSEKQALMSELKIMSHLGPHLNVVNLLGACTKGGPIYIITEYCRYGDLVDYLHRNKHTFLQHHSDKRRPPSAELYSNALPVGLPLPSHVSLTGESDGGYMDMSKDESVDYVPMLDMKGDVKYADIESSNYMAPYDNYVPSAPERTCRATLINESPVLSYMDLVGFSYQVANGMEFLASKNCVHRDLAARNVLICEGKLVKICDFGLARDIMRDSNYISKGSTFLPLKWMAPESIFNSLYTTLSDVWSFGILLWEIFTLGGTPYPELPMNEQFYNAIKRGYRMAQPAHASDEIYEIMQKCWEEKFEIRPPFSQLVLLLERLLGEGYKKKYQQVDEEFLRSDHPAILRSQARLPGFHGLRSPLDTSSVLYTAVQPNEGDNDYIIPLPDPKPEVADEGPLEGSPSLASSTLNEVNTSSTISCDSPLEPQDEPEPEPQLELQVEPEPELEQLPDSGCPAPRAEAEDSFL

In the case of `O=C(Nc1cccc(C(F)(F)F)c1)c1ccc(Cn2cnc3c(Cl)nc(Cl)nc32)cc1` [Compound 7, 4-((2,6-Dichloro-9H-purin-9-yl)methyl)-N-(3-(trifluoromethyl)phenyl)benzamide], in the experiment with OKP-GS cells [1] (5 μM), the Living cells is recorded as 83,07. In addition, the Living cells in the experiment with OKP-GS cells [1] (10 μM) is recorded as 56,68. In the experiment on OKP-GS cells [1] (20 μM), the “Level of apoptosis compared with sorafnib” value is on record as “more than two-fold higher level of apoptosis” and the Living cells was 23,92. For the same compound, the “Number of necrotic cells” value in the experiment on OKP-GS cells [1] is on record as no more than 7.3%. Moreover, on Bcr–Abl1 kinase, testing at 0.5 µM gave an inhibition of 24% and the inhibition at 10 µM was found to be 16%. Besides, at PDGFRβ, the “% Inhibition at 1 µM, PDGFRβ” value turned out to be 30% and the inhibition at 1 µM was in the range of 36 to 45%. Besides, in the experiment with OKP-GS cells [2] (5 μM), the “Cells in G1 phase” value is on record as 60.9%; the “Cells in G2/M phase” value is 23.53% and 23.5%; the “Cells in S phase” value stood at 14.2%. Besides, in the experiment on OKP-GS cells [2] (10 μM), the “Cells in G1 phase” value was determined as 55.5%; the “Cells in G2/M phase” value was 26.02% and 26.0%; the “Cells in S phase” value is 17.7%. In addition, in the experiment on OKP-GS cells [2] (20 μM), the “Cells in G1 phase” value is recorded as 51.2%; the “Cells in G2/M phase” value was 29.94% and 29.9%; the “Cells in S phase” value amounted to 17.4%. Besides, on HER2, the “% Inhibition at 1 µM, HER2” value was 22% and the inhibition at 1 µM is 22 to 26%.
On Bcr–Abl1 kinase, `COc1nc(Cl)nc2c1ncn2Cc1ccc(C(=O)Nc2cccc(C(F)(F)F)c2)cc1` [Compound 13, 4-((2-Chloro-6-methoxy-9H-purin-9-yl)methyl)-N-(3-(trifluoromethyl)phenyl)benzamide] gave an inhibition at 0.5 µM of 24% and an inhibition at 10 µM of 21%. This compound came in with an inhibition at 1 µM at PDGFRβ of 17%. Besides, testing at 1 µM on HER2 gave an inhibition of 0%.
In the case of `CNC(=O)c1cc(Oc2ccc(NC(=O)Nc3ccc(Cl)c(C(F)(F)F)c3)cc2)ccn1` [Sorafenib, sorafenib, reference compound], in the experiment on OKP-GS cells [2] (20 μM), the “Cells in G1 phase” value was found to be 61.9%, the “Cells in G2/M phase” value came to 19.7% and the “Cells in S phase” value is 17.3%.
For the compound `Cc1cn(-c2cc(NC(=O)c3ccc(Cn4cnc5c(Cl)nc(Cl)nc54)cc3)cc(C(F)(F)F)c2)cn1` [Compound 10, 4-((2,6-Dichloro-9H-purin-9-yl)methyl)-N-(3-(4-methyl-1H-imidazol-1-yl)-5-(trifluoromethyl)-phenyl)benzamide], the Living cells is 70,22 in the experiment with OKP-GS cells [1] (5 μM), 44,89 in the experiment on OKP-GS cells [1] (10 μM) and 21,99 in the experiment with OKP-GS cells [1] (20 μM). In addition, the “Level of apoptosis compared with sorafnib” value in the experiment on OKP-GS cells [1] (20 μM) is given as “more than two-fold higher level of apoptosis”. The “Number of necrotic cells” value in the experiment on OKP-GS cells [1] is given as no more than 7.3%. The inhibition at 0.5 µM against Bcr–Abl1 kinase worked out at 36%. At 10 µM the inhibition against Bcr–Abl1 kinase was 43%. The inhibition at 1 µM at PDGFRβ stood at 39%; against HER2, 11%. Moreover, the “Cells in G1 phase” value came to 56.9% with OKP-GS cells [2] (5 μM) and 53.3% in the experiment with OKP-GS cells [2] (10 μM). In addition, the entries for the “Cells in G2/M phase” value in the experiment on OKP-GS cells [2] (5 μM), with OKP-GS cells [2] (10 μM) and in the experiment with OKP-GS cells [2] (20 μM) were 24.3%, 24.2% and 25.3%, respectively. The “Cells in S phase” value with OKP-GS cells [2] (5 μM) came out at 16.8%; with OKP-GS cells [2] (10 μM), 21.5%; in the experiment on OKP-GS cells [2] (20 μM), 19.3%.
On Bcr–Abl1 kinase, `Nc1nc(Cl)nc2c1ncn2Cc1ccc(C(=O)Nc2cccc(C(F)(F)F)c2)cc1` [Compound 15, 4-((6-Amino-2-chloro-9H-purin-9-yl)methyl)-N-(3-(trifluoromethyl)phenyl)benzamide] came in with an inhibition at 0.5 µM of 17% and an inhibition at 10 µM of 28%. This compound also had an inhibition at 1 µM on PDGFRβ of 33%. The inhibition at 1 µM against HER2 was 0%.
For the compound `COc1nc(Cl)nc2c1ncn2Cc1ccc(C(=O)Nc2cc(-n3cnc(C)c3)cc(C(F)(F)F)c2)cc1` [Compound 14, 4-((2-Chloro-6-methoxy-9H-purin-9-yl)methyl)-N-(3-(4-methyl-1H-imidazol-1-yl)-5-(trifluoromethyl)phenyl)benzamide], at Bcr–Abl1 kinase, at 0.5 µM the inhibition was 18% and 10 µM produced 17% inhibition. The same compound displayed an inhibition at 1 µM against PDGFRβ of 20%. This compound registered an inhibition at 1 µM at HER2 of 8%.

The values above are taken from paper PMC8657793, “Synthesis, In Vitro and In Silico Anticancer Activity of New 4-Methylbenzamide Derivatives Containing 2,6-Substituted Purines as Potential Protein Kinases Inhibitors” (International Journal of Molecular Sciences, 2021).
